“And” between values parts separate entries of the source, which are not always exact repeats. Equal entries are not always repeated. Where two headings read alike, the source gives them in different places. Numbered stars: 1 amine (or outer) side, 2 acyl side, 3 side chain; on linkers, the order of the positions; unused ones are H or OH. Square brackets hold non-standard residues; d marks the D form. Peptide text beside a SMILES is read from it. * marks the point of attachment. ξ: configuration not given here. Gly(1-amidinopiperidin-4-yl) = N=C(N)N1CCC([C@H](N)C(=O)O)CC1; X1 = CC(C)c1oc([C@H](CO)N[*:1])nc1C(=O)[*:2]; Pro(3R-Ph) = O=C(O)[C@H]1NCC[C@@H]1c1ccccc1; Met(O) = CS(=O)CC[C@H](N)C(=O)O; Tic = O=C(O)[C@@H]1Cc2ccccc2CN1; Cha = N[C@@H](CC1CCCCC1)C(=O)O; NMe(benzyl) = CN(Cc1ccccc1)*; ξDisc = O=C(O)C1NCc2ccccc21; Nle = CCCC[C@H](N)C(=O)O; X2 = OCCOCCN(Cc1ccccc1)*
Legend:
[1] = molecular target: DR1 (DRA1*0101 DRB1*0101) (Homo sapiens, UniProt P01903+P01911, A100R/D57E/F55L/F60I/F76Y/I96L/L162R/M171V/P40L/Q125E/R42F/V115G/Y59C); assay: Competitive binding to MHC-II protein DR1; conditions: Protein binding IC50 (nM) 0101, 0101
Procedure, shortened: (§1)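 Each MHC-II allele incubated with compound 16 hours at room temperature in duplicate; controls lacked compound, or both compound and MHC-II. Complexes captured 2 h at 4 °C, bound biotinylated peptide detected via europium-streptavidin and DELFIA enhancement, time-resolved fluorescence read at ex 340/em 613 (615) nm.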

[2] = molecular target: T1, Priess (DR4Dw4: DRA1*0101 DRB1*0401) cells (Homo sapiens, UniProt P01903+P01911, A100K/A169T/F76Y/I96L/K127E/L162R/M171V/N62H/P40V/Q125Y/R42H/S133A/S149N/S66Y/V115G/V209L/W38E); assay: Competitive binding to MHC II proteins expressed on Priess cells; assay type: cell-based
T1 construct: MHC II Proteins Expressed on PRIESS and LG2 Cells; endogenous in cells; host or cells: Priess cells
Experimental: (§2) For use in the binding assay the cells were re-suspended in medium containing 1% FCS at a density of 2.5×10^6 cells/ml.
(§3) The assay was performed in sterile 96 well polystyrene microtiter plates. A 10 fold dilution series of compounds (16 nM-1615 μM) in 1% FCS was prepared from 5 or 10 mM compound stock solutions in 10% DMSO/water. 50 μl of each compound dilution were added in duplicates to 50 μl of a 16 μM solution of indicator peptide in 1% FCS. Cell binding was initiated by adding 100 μl of 2.5×10^6 cells/ml 1% FCS to each well. Controls were included containing the DMSO concentration present in the solution with the highest compound concentration. The cells were incubated at 37° C., 6% CO2. After 4 hours the cells were washed with 200 μl PBS and lysed in 200 μl lysis buffer (50 mM sodium phosphate, 150 mM sodium chloride, 1% (w/v) NP-40, 25 mM iodoacetamide, 1 mM PMSF, 3.1% protease inhibitor cocktail: 0.32 g/l of Chymostatin, Antipain, Pepstatin A, Soybean trypsin inhibitor and Leupeptin each, pH 7.5) for 10 min.
(§4) After washing with PBS, 190 μl of cell lysate were transferred to the appropriate wells of the capture plate and incubated for 2 h at 4° C. The wells were washed six times with 200 μl/well cooled (4 to 8° C.) of 1×DELFIA wash (Wallac-ADL-GmbH, Freiburg), incubated with 100 μl of cooled Europium-streptavidin conjugate (Wallac-ADL-GmbH, Freiburg; diluted 1/1000 with DELFIA assay buffer) for 30 minutes at 4° C., again washed six times with cooled 1×DELFIA wash and, finally, incubated with 200 μl cooled DELFIA enhancement solution (Wallac-ADL-GmbH, Freiburg) for one hour at room temperature before reading the time-resolved europium fluorescence at λex Eu^3+: 340 nm and λem Eu^3+: 613 (615) nm (Wallac Victor^2 1420 Multilabel Counter, Wallac-ADL-GmbH, Freiburg).

[3] = Stability of compounds in rat blood plasma; assay type: in vitro ADME
Procedure, shortened: (§5)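 Compounds at 5 μM final in rat, mouse or human plasma, incubated at 37 °C and sampled at 0, 6 and 24 h. Proteins precipitated with acetonitrile and the supernatant dried and reconstituted in 50% acetonitrile/0.1% TFA. PBS controls run for unstable compounds.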

[4] = molecular target: DR4Dw4 (DRA1*0101 DRB1*0401) (Homo sapiens, UniProt P01903+P01911, A100K/A169T/F76Y/I96L/K127E/L162R/M171V/N62H/P40V/Q125Y/R42H/S133A/S149N/S66Y/V115G/V209L/W38E); assay: Competitive binding to MHC-II protein DR4Dw4
Procedure, shortened: as §1

[5] = Stability of compounds in human blood plasma; assay type: in vitro ADME
Procedure, shortened: as §5

[6] = molecular target: T2, LG2 (DR1: DRA1*0101 DRB1*0101) cells (Homo sapiens, UniProt P01903+P01911, A100R/D57E/F55L/F60I/F76Y/I96L/L162R/M171V/P40L/Q125E/R42F/V115G/Y59C); assay: Competitive binding to MHC II proteins expressed on LG2 cells; assay type: cell-based; conditions: for IC50: Cell binding IC50 (uM) LG2 (0101), LG2 (0101)
T2 construct: MHC II Proteins Expressed on PRIESS and LG2 Cells; endogenous in cells; host or cells: LG2 cells
Experimental: as §2, §3, §4

[7] = molecular target: DR4Dw14 (DRA1*0101 DRB1*0404) (Homo sapiens, UniProt P01903+P01911, A100R/A169T/F76Y/I96L/K127E/L162R/M171V/N62H/P40V/Q125Y/R42H/S133A/S149N/S66Y/V209L/W38E); assay: Competitive binding to MHC-II protein DR4Dw14; conditions: 0404; read-out: Protein binding IC50 (nM) 0404
Procedure, shortened: as §1

[8] = Stability of compounds in mouse blood plasma; assay type: in vitro ADME
Procedure, shortened: as §5

[9] = system: T-cell proliferation, DR14-LN; conditions: for Immunsupressive assays DR14-LN (Max) % Inhibition: maximal inhibition; for IC50: read-out: Immunsupressive assays DR14-LN (IC50)

CSCC[C@H](NC(=O)C1c2ccccc2CN1C(=O)[C@H](CCCNC(=N)N)NC(=O)[C@H](CC1CCCCC1)NC(C)=O)C(N)=O (stereo partly drawn) [Compound P12-1, Ac-Cha-Arg-Disc-Met-NH2] (Ac-[Cha]R[ξDisc]M-NH2)
IC50 [1]: 430 nM
IC50 [2]: 6700 nM
Stability (Arbitrary units) Rat 6 h [3]: 67 Arbitrary units
Stability (Arbitrary units) Rat 24 h [3]: 10 Arbitrary units
IC50 [4]: 370 nM
Stability (Arbitrary units) Human 6 h [5]: 75 Arbitrary units
Stability (Arbitrary units) Human 24 h [5]: 0 Arbitrary units
IC50 [6]: 9.6 µM
IC50 [7]: 860 nM
Stability (Arbitrary units) Mouse 6 h [8]: 76 Arbitrary units
Stability (Arbitrary units) Mouse 24 h [8]: 38 Arbitrary units

CC(=O)N[C@@H](CC1CCCCC1)C(=O)N[C@H](C(=O)N1Cc2ccccc2C[C@H]1C(=O)N[C@@H](CC[S+](C)[O-])C(=O)N1CC[C@H](c2ccccc2)[C@H]1C(=O)N[C@@H](CO)c1nc(C(=O)N(C)C)c(C(C)C)o1)C1CCN(C(=N)N)CC1 (stereo partly drawn) [Compound P47, Ac-Cha-Gpg-Tic-Met(O)-βPhPro-[S(oxaz)L]-NMe2] (Ac-[Cha][Gly(1-amidinopiperidin-4-yl)][Tic][Met(O)][Pro(3R-Ph)][X1]-NMe2)
IC50 [1]: 330 nM
IC50 [2]: 6900 nM
Stability (Arbitrary units) Rat 6 h [3]: 116 Arbitrary units
Stability (Arbitrary units) Rat 24 h [3]: 103 Arbitrary units
IC50 [4]: 180 nM
Stability (Arbitrary units) Human 6 h [5]: 126 Arbitrary units
Stability (Arbitrary units) Human 24 h [5]: 140 Arbitrary units
IC50 [6]: 4.6 µM
binding to MHC class II protein expressed on the surface of LG2 cells ([6]; compared to the Arg-containing equivalent): Improved binding
IC50 [7]: 580 nM
Stability (Arbitrary units) Mouse 6 h [8]: 126 Arbitrary units
Stability (Arbitrary units) Mouse 24 h [8]: 111 Arbitrary units

CCCC[C@H](NC(=O)[C@@H]1Cc2ccccc2CN1C(=O)[C@H](CCCNC(=N)N)NC(=O)[C@H](CC1CCCCC1)NC(C)=O)C(=O)N(C)Cc1ccccc1 [Compound P71, Ac-Cha-Arg-Tic-Nle-N(Me)Bn] (Ac-[Cha]R[Tic][Nle]-{NMe(benzyl)})
Immunsupressive assays DR14-LN (Max) % Inhibition [9]: 98% and 96%
IC50 [9]: 15000 nM
Stability (Arbitrary units) Rat 6 h [3]: 89 Arbitrary units
Stability (Arbitrary units) Rat 24 h [3]: 53 Arbitrary units
Stability (Arbitrary units) Human 6 h [5]: 107 Arbitrary units
Stability (Arbitrary units) Human 24 h [5]: 90 Arbitrary units
Stability (Arbitrary units) Mouse 6 h [8]: 117 Arbitrary units

CSCC[C@H](NC(=O)[C@@H]1Cc2ccccc2CN1C(=O)[C@H](CCCNC(=N)N)NC(=O)[C@H](CC1CCCCC1)NC(C)=O)C(N)=O [Compound P1, Ac-Cha-Arg-Tic-Met-NH2] (Ac-[Cha]R[Tic]M-NH2)
IC50 [1]: 260 nM
IC50 [2]: 11000 nM
Stability (Arbitrary units) Rat 6 h [3]: 11 Arbitrary units
Stability (Arbitrary units) Rat 24 h [3]: 0 Arbitrary units
IC50 [4]: 1600 nM
Stability (Arbitrary units) Human 6 h [5]: 94 Arbitrary units
IC50 [6]: 8.8 µM and 6.8 µM
IC50 [7]: 2300 nM
Stability (Arbitrary units) Mouse 24 h [8]: 5 Arbitrary units

CCCC[C@H](NC(=O)C1c2ccccc2CN1C(=O)[C@@H](NC(=O)[C@H](CC1CCCCC1)NC(C)=O)C1CCN(C(=N)N)CC1)C(=O)N(C)Cc1ccccc1 (single isomer, unassigned) [Compound P78-1]
IC50 [1]: 550 nM
IC50 [2]: 9800 nM
Stability (Arbitrary units) Rat 6 h [3]: 80 Arbitrary units
Stability (Arbitrary units) Rat 24 h [3]: 84 Arbitrary units
IC50 [4]: 2300 nM
Stability (Arbitrary units) Human 6 h [5]: 93 Arbitrary units
Stability (Arbitrary units) Human 24 h [5]: 107 Arbitrary units
IC50 [6]: 4.6 µM
IC50 [7]: 1400 nM
Stability (Arbitrary units) Mouse 6 h [8]: 93 Arbitrary units
Stability (Arbitrary units) Mouse 24 h [8]: 18 Arbitrary units

CCCC[C@H](NC(=O)[C@@H]1Cc2ccccc2CN1C(=O)[C@@H](NC(=O)[C@H](CC1CCCCC1)NC(C)=O)C1CCN(C(=N)N)CC1)C(=O)N(CCOCCO)Cc1ccccc1 [Compound P101, Ac-Cha-Gpg-Tic-Nle-N(Bn)CH2CH2OCH2CH2OH] (Ac-[Cha][Gly(1-amidinopiperidin-4-yl)][Tic][Nle]-X2)
IC50 [1]: 500 nM
Immunsupressive assays DR14-LN (Max) % Inhibition [9]: 100%
IC50 [9]: 46000 nM
Stability (Arbitrary units) Rat 6 h [3]: 73 Arbitrary units
Stability (Arbitrary units) Rat 24 h [3]: 81 Arbitrary units
IC50 [4]: 1500 nM
Stability (Arbitrary units) Human 24 h [5]: 107 Arbitrary units
Stability (Arbitrary units) Human 6 h ([5]; human plasma, 6 h): 106 Arbitrary units
IC50 [7]: 650 nM
Stability (Arbitrary units) Mouse 6 h [8]: 107 Arbitrary units
Stability (Arbitrary units) Mouse 24 h [8]: 94 Arbitrary units

CCCC[C@H](NC(=O)[C@@H]1Cc2ccccc2CN1C(=O)[C@H](CCCNC(=N)N)NC(=O)[C@H](CC1CCCCC1)NC(C)=O)C(=O)N1CC[C@H](c2ccccc2)[C@H]1C(=O)N[C@@H](CO)c1nc(C(=O)N(C)C)c(C(C)C)o1 [Compound P51, Ac-Cha-Arg-Tic-Nle-βPhPro-[S(oxaz)L]-NMe2] (Ac-[Cha]R[Tic][Nle][Pro(3R-Ph)][X1]-NMe2)
IC50 [1]: 400 nM
Immunsupressive assays DR14-LN (Max) % Inhibition [9]: 99%
IC50 [9]: 52000 nM
Stability (Arbitrary units) Rat 6 h [3]: 81 Arbitrary units
Stability (Arbitrary units) Rat 24 h [3]: 60 Arbitrary units
IC50 [4]: 670 nM
Stability (Arbitrary units) Human 6 h [5]: 119 Arbitrary units
Stability (Arbitrary units) Human 24 h [5]: 129 Arbitrary units
IC50 [6]: 3 µM
IC50 [7]: 210 nM
Stability (Arbitrary units) Mouse 24 h [8]: 136 Arbitrary units

CSCC[C@H](NC(=O)C1c2ccccc2CN1C(=O)[C@@H](NC(=O)[C@H](CC1CCCCC1)NC(C)=O)C1CCN(C(=N)N)CC1)C(N)=O (stereo partly drawn) [Compound P66-1, Ac-Cha-Gpg-Disc-Met-NH2] (Ac-[Cha][Gly(1-amidinopiperidin-4-yl)][ξDisc]M-NH2)
IC50 [1]: 290 nM
IC50 [2]: 7800 nM
Stability (Arbitrary units) Rat 6 h [3]: 138 Arbitrary units
Stability (Arbitrary units) Rat 24 h [3]: 81 Arbitrary units
IC50 [4]: 290 nM
Stability (Arbitrary units) Human 6 h [5]: 103 Arbitrary units
Stability (Arbitrary units) Human 24 h [5]: 87 Arbitrary units
IC50 [6]: 6 µM
IC50 [7]: 590 nM
Stability (Arbitrary units) Mouse 6 h [8]: 115 Arbitrary units
Stability (Arbitrary units) Mouse 24 h [8]: 112 Arbitrary units

CSCC[C@H](NC(=O)[C@@H]1Cc2ccccc2CN1C(=O)[C@@H](NC(=O)[C@H](CC1CCCCC1)NC(C)=O)C1CCN(C(=N)N)CC1)C(=O)N(CCOCCO)Cc1ccccc1 [Compound P102, Ac-Cha-Gpg-Tic-Met-N(Bn)CH2CH2OCH2CH2OH] (Ac-[Cha][Gly(1-amidinopiperidin-4-yl)][Tic]M-X2)
IC50 [1]: 580 nM
Immunsupressive assays DR14-LN (Max) % Inhibition [9]: 100%
IC50 [9]: 73000 nM
Stability (Arbitrary units) Rat 6 h [3]: 131 Arbitrary units
Stability (Arbitrary units) Rat 24 h [3]: 121 Arbitrary units
IC50 [4]: 1700 nM
Stability (Arbitrary units) Human 6 h [5]: 110 Arbitrary units
Stability (Arbitrary units) Human 24 h ([5]; human plasma, 24 h): 116 Arbitrary units
IC50 [7]: 2100 nM
Stability (Arbitrary units) Mouse 6 h [8]: 105 Arbitrary units
Stability (Arbitrary units) Mouse 24 h [8]: 101 Arbitrary units
